Measured values as given in patent publication US11564899B2, “Therapy for transthyretin-associated amyloidosis” (SOM INNOVATION BIOTECH, S.L., priority 2011, dated 2023).

Experiments:
Assay type in all cases: biochemical
[1] = target: T1, Recombinant Y78F TTR protein (Homo sapiens, UniProt P02766, Y98F); experiment: Kinetic turbidity assay of TTR fibril formation; conditions: Y78F TTR 0.4 mg/mL, RA=100*B/(A+B)
T1 construct: made in house
Method: Stocks of compounds assayed as inhibitors were dissolved in DMSO (spectrophotometry grade from Sigma) at 1.5 mM concentration. Working solutions were prepared by diluting the stock solution 1:4 in H2O/DMSO (2:1). In all cases, DMSO concentration was adjusted to 5% (v/v) in the final reaction assay mixture.
The assay comprises two stages, one stage where the Y78F protein is incubated together with the inhibitor during 30 minutes, and a second stage where fibril formation is induced by a change in pH and absorbance is measured along 1.5 h. Briefly, the assay was performed as follows:
First, the following solutions were prepared: Protein Y78F stock: 4 mg/mL in 20 mM phosphate, 100 mM KCl, pH 7.6. Incubation buffer: 10 mM phosphate, 100 mM KCl, 1 mM EDTA, pH 7.6. Dilution buffer: 400 mM sodium acetate, 100 mM KCl, 1 mM EDTA, pH 4.2.
Incubation buffer was then added up to a volume of 100 μL. The plate was incubated at 37° C. in a thermostated microplate reader with orbital shaking 15 s every minute for 30 min. A 100 μL portion of dilution buffer was dispensed to each well, and the mixture was incubated at 37° C. with shaking (15 s every min) in the microplate reader. Absorbance at 340 nm was monitored for 1.5 h at 1 min intervals. Data were collected and analyzed using Microsoft Excel software. All assays were done in duplicate.
After following the general procedure indicated above, time-course curves were obtained, from which the initial rates of fibril formation (V0) were calculated as the slopes of the linear increase of absorbance. […] Data were fitted to equation (1): V0=A+B*e^−C[I] (1), where V0 is the initial rate of fibril formation (in absorbance units per hour, Abs*h^−1), and [I] is the concentration of the inhibitor (μM). Adjustable parameters are A (Abs*h^−1), residual aggregation rate at high concentration of inhibitor; B (Abs*h^−1), amplitude or maximum decrease of initial rate of fibril formation; and C (μM^−1), the exponential constant. A+B is equal to the initial rate of fibril formation under the assay conditions in the absence of inhibitor. […]

[2] = target: T2, Recombinant V122I TTR protein (Homo sapiens, UniProt P02766, V142I); experiment: End-point turbidity assay (72 h) with V122I TTR; conditions: V122I 0.4 mg/mL
T2 construct: made in house
Method: Recombinant V122I TTR protein, which is an amyloidogenic variation of human TTR associated with Familial Amyloid Cardiomyopathy (FAC), was produced by following the same procedure described for the Y78F variant used in Example 1. Plasmid DNA expressing the V122I mutant was prepared by site-directed mutagenesis as reported for Y78F in Dolado et al (supra). but using the following primers: 5′-[…]-3′ and 5′-[…]-3′.
This assay is used for TTR variants with lower amyloidegenicity than the Y78F variant when the kinetic turbidity assay is not sensitive enough for accurate measurements. The procedure followed to test the inhibitors by this end-point assay at 72 h is reported in Dolado et al, (supra). V122I TTR was incubated with the inhibitor under the same conditions described above for the kinetic turbidity assay (Example 1), using V122I protein at a concentration of 0.4 mg/mL and three different concentrations of inhibitor: […], corresponding to 0.5×[protein], 1×[protein], and 3×[protein]. After acid induction (addition of dilution buffer), samples were incubated without shaking for 72 h at 37° C. and then homogenized by mixing to resuspend any fibrils present. Turbidity was measured at 340 nm and normalized to amyloidogenesis in the absence of inhibitor.
The inhibitory potency of the tested compounds was evaluated as the percentage of absorvance reduction of the inhibitor-containing samples when compared with the inhibitor-free control sample.
% Fibril reduction=100×(1-turbidity sample/turbidity blank), where turbidity sample is the turbidity measured in the presence of inhibitor, and turbidity blank is that in the absence of inhibitor.

[3] = test system: plasma TTR tetramer (controls and TTR V30M carriers); conditions: human plasma (controls and V30M carriers pooled), 4 M urea IEF, relative to non-treated plasma of same donor
Method: The preparations were subjected to native PAGE (5% acrylamide) and the gel band containing TTR was excised and applied to an IEF gel (5% acrylamide). IEF was carried out in semi-denaturing conditions (4 M urea), containing 5% (v/v) ampholytes pH 4-6.5 (GE Healthcare), at 1200 V for 6 hours. Proteins were stained with Coomassie Blue, the gels were scanned and subjected to densitometry using the ImageQuant program (HP Scanjet 4470c, Hewlett Packard). […] A total of 12 plasma samples (5 controls and 7 carriers TTR V30M) were analyzed in 3 IEF gels. For each treatment condition, a minimum of 4 samples from different donors were processed. The ratio of TTR tetramer over Total TTR (TTR tetramer+monomer) was calculated for each plasma sample and represented in FIG. 2.
The increase of the tetramer/total TTR ratio induced by the treatment with test compounds was pooled for all samples and represented in Table 4 as % of stabilization. These values were calculated after normalizing the tetramer/total TTR ratio obtained for each sample, with the ratio obtained for the non-treated plasma of the corresponding individual donor as described below: % stabilization=100×((ratio sample−ratio nt)/ratio nt). Where “ratio sample” is tetramer/total TTR ratio in the presence of compound; and “ratio nt” is tetramer/total TTR ratio of non-treated plasma from same donor.

[4] = inhibitor 0.5x[protein] (3.6 microM)
[5] = inhibitor 1x[protein] (7.2 microM)
[6] = inhibitor 3x[protein] (21.8 microM)

RA (%) percentage of amyloidosis reduction (reduction of fibril formation rate at high inhibitor concentration) [1] [%] | Structure (SMILES) | % Fibril Reduction [2, 4] [%] | % Fibril Reduction [2, 5] [%] | % Fibril Reduction [2, 6] [%] | % stabilization (average +/− sem) of TTR tetramer [3]
99 | O=C(O)c1ccc2nc(-c3cc(Cl)cc(Cl)c3)oc2c1 [Tafamidis, 2-(3,5-dichlorophenyl)-1,3-benzoxazole-6-carboxylic acid] |  |  |  | 16.4 +/− 5.49%
85.8 | Cc1ccc(C(=O)c2cc(O)c(O)c([N+](=O)[O-])c2)cc1 [Tolcapone, 3,4-dihydroxy-4′-methyl-5-nitrobenzophenone] | 79.3 | 84.3 | 100.0 | 29.9 +/− 7.64%

Structure (SMILES) | RA (%) percentage of amyloidosis reduction (reduction of fibril formation rate at high inhibitor concentration) [1] [%] | % Fibril Reduction [2, 4] [%] | % Fibril Reduction [2, 5] [%] | % Fibril Reduction [2, 6] [%] | % stabilization (average +/− sem) of TTR tetramer [3]
O=C(O)c1cc(-c2ccc(F)cc2F)cc(I)c1O [Iododiflunisal] | 99.8 | 83.2 | 85.0 | 88.2 | 
